{"source": "patent US7312302B2", "about": "“Compositions for the detection of enzyme activity in biological samples and methods of use thereof” (Oncolmmunin, Inc., priority 1997, dated 2007)", "note": "Non-standard residues stand in square brackets, D forms with d. Primed or numbered codes have the meaning given here. No end group written: not given here. *: point of attachment. F1 = 5-carboxytetramethylrhodamine (donor fluorophore); F1(3) = carboxytetramethylrhodamine; Fmoc = O=C(OCC1c2ccccc2-c2ccccc21)*; code B = not defined here; code J = not defined here; Cbz = O=C(OCc1ccccc1)*; F1″ = not defined here; C5 = not defined here", "data": [{"molecular_target": "T1, CPP32 protease (Homo sapiens, UniProt P42574)", "T1 construct": "served as a direct measure of the intracellular CPP32 protease activity; endogenous in cells", "T1 sequence (P42574 29-277)": "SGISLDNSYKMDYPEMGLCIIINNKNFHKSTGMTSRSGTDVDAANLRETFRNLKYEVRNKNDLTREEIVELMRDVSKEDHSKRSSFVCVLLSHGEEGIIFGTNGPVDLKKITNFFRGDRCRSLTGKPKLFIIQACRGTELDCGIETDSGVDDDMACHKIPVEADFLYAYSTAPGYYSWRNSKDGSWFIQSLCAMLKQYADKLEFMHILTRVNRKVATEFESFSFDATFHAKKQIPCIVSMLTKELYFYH", "assay": "Cell lysate hydrolysis of DEVD-AFC, competitive substrate inhibition (anti-Fas-stimulated Jurkat cell lysate)", "format": "biochemical", "conditions": "concentration raised to 25 μM; 50 μM DEVD-AFC, 37° C.", "experimental": "The level of CPP32 protease activity in the 6 hr ant-Fas-stimulated Jurkat cell lysate was examined using the protease substrate, DEVD-AFC (where AFC is aminofluoromethyl coumarin) 50 μM substrate concentration at 37° C. The buffer used was 50 mM HEPES, pH7.5, 10% w/v sucrose, 0.1% w/v CHAPS.) Fluorescence intensity changes were monitored with an SLM 48000 spectrofluorometer. […] As the concentrations of DEVD, DEVN, and ICE were raised to 25 μM, the rate of DEVD-AFC hydrolysis was decreased.", "values": [{"compound": "K[F1]DBDEVDGIDPK[F1]GY (K(F1″)D[code B]DEVDGIDPK(F1″)GY; reading uncertain; also: printed as K[F1]DBDEVDGIDPK[F1]GY) [Compound 5]", "rate of DEVD-AFC hydrolysis in presence of substrate": "decreased"}, {"compound": "K[F1]DYBADGIDPK[F1]GY (K(F1″)DY[code B]ADGIDPK(F1″)GY; reading uncertain; also: printed as K[F1]DYBADGIDPK[F1]GY) [Compound 9]", "rate of DEVD-AFC hydrolysis in presence of substrate": "decreased"}, {"compound": "K[F1]DBDEVNGIDPK[F1]GY (K(F1″)D[code B]DEVNGIDPK(F1″)GY; reading uncertain; also: printed as K[F1]DBDEVNGIDPK[F1]GY) [Compound 7]", "rate of DEVD-AFC hydrolysis in presence of substrate": "decreased"}]}, {"system": "not given", "assay": "not given", "conditions": "doubly labeled NorFes, Packard et al. 1998; cited from earlier work", "values": [{"compound": "diethylrhodamine", "free energy of activation of disruption of homodimers": "2.4 kcal/mol"}, {"compound": "CN(C)c1ccc2c(-c3ccccc3C(=O)[O-])c3ccc(N(C)C)cc3[o+]c2c1", "note": "[tetramethylrhodamine]", "free energy of activation of disruption of homodimers": "at least 1.7 kcal/mole"}]}, {"system": "not given", "assay": "not given", "conditions": "free dye in solution; cited from earlier work", "values": [{"compound": "CCN(CC)c1ccc2c(-c3ccccc3C(=O)O)c3ccc(=[N+](CC)CC)cc-3oc2c1.[Cl-]", "note": "[Rhodamine B]", "concentration above which ground-state dimerization of free dye in solution was observed": "higher than 6×10^−4 M"}, {"compound": "O=C1OC2(c3ccccc31)c1cc(Br)c(O)c(Br)c1Oc1c2cc(Br)c(O)c1Br", "note": "[Eosin]", "concentration above which ground-state dimerization of free dye in solution was observed": "higher than 2.8×10^−2 M"}]}, {"system": "DEVDase activity (caspase 3/7)", "assay": "DEVDase activity in apoptotic thymocyte extract using PhiPhiLux substrate, with protease inhibitors", "format": "biochemical, mouse", "conditions": "apoptotic thymocyte extract, FIG. 5", "experimental": "(§1) FIG. 5 illustrates the inhibition of DEVDase activity in apoptotic thymocyte extract using PhiPhiLux™ substrate. An extract of mouse thymocytes exposed to 0.1 mM dexamethasone for 6 h was incubated in fluorometer cuvettes at 37° C. with 10 mM PhiPhiLux™ substrate with or without the indicated protease inhibitors. Enzymatic activity was calculated from the rate of increase of fluorescence.\n(§2) Single cell suspensions of thymocytes were cultured in RPMI 1640 with 10% FCS at a concentration of 10 6 cells/ml. Dexamethasone (final concentration, 0.1 mM) and ZVAD (OMe)FMK (final concentration, 50 mM) were added at the indicated times from stock solutions in DMSO (100 mM for dexamethasone and 200 mM for ZVAD[OMe]FMK). For antiFas stimulation, wells in a 24 well plate were coated with antiFas antibody (20 mg/ml; […] per well) overnight at 378 C. After twice washing the wells with medium containing 10% FCS, 4 3 10 6 thymocytes were added per well. After culture at 378 C in a 5% CO2 atmosphere for the indicated times, cells were centrifuged and resuspended in 75 ml of each substrate (10 mM) in 1.5 ml Eppendorf tubes. The open tubes were placed in the CO2 incubator for an additional 60 min. After washing in saline, cells were analyzed by flow cytometry. Caspase activity measurements in extracts with several known inhibitors and noninhibitors were carried out using fluorometers from Photon Technology International and SLMAMINCO. Cell lysates were prepared using a cell lysate buffer consisting of 50 mM Hepes, pH 7.5, 10% (wt/vol) sucrose, 0.1% (wt/vol) CHAPS, 0.5% (wt/vol) Triton X100, and 10 mM DTT. The substrate (10 mM) was prepared in 50 mM Hepes, pH 7.5, with 10 mM DTT. All measurements were made at 378 C using a thermostated cell holder in a 150 ml quartz cuvette (3 3 3. 45 mm; Starna Cells, Inc.). The temperature of the substrate solution was preequilibrated for 20 min, ensuring temperature equilibration by having a flat base line before cell lysate addition. A 10 ml aliquot from an apoptotic thymocyte lysate was added to 110 ml of substrate solution. The fluorescence intensity was then monitored for 30-60 min. The initial velocity was calculated from the linear portion of the fluorescence increase. Various amounts of inhibitors were added to the cell lysate for 20 min before addition of the cell lysate mixture to the substrate solution.\n(§3) The caspase substrates used in these studies were based on optimal peptide recognition motifs for various caspases as reported by peptide library studies (2) and are described in Table I. To assess whether cleavage of these substrates in apoptotic thymocytes was due to caspases, we examined extracts from untreated fresh thymocytes, or from thymocytes treated with dexamethasone.", "values": [{"compound": "CC(C)C[C@H](NC(=O)[C@H]1O[C@@H]1C(=O)O)C(=O)NCCCCN=C(N)N", "note": "[Compound E64]", "inhibition of apoptotic DEVDase activity": "lack of inhibition"}, {"compound": "NC(=O)CI", "note": "[iodoacetamide]", "inhibition of apoptotic DEVDase activity": "inhibition"}, {"compound": "CC(=O)N[C@@H](CC(C)C)C(=O)N[C@@H](CC(C)C)C(=O)N[C@H](C=O)CCCNC(=N)N", "note": "[leupeptin]", "inhibition of apoptotic DEVDase activity": "lack of inhibition"}, {"compound": "CC(=O)N[C@@H](CC(=O)O)C(=O)N[C@@H](CCC(=O)O)C(=O)N[C@H](C(=O)N[C@H](C=O)CC(=O)O)C(C)C", "note": "[DEVDCHO]", "inhibition of apoptotic DEVDase activity": "complete inhibition"}]}, {"system": "DEVDase activity (caspase 3/7)", "assay": "DEVDase activity in apoptotic thymocyte extract using PhiPhiLux substrate, with protease inhibitors", "format": "biochemical, mouse", "conditions": "on a cell basis", "experimental": "as §1, §2, §3", "units": {"cleavage by apoptotic thymocyte extracts relative to fresh thymocyte extracts": "fold"}, "values": [{"compound": "KDPC5GDEVDGIDGC5PKGY (KDP[C5]GDEVDGIDG[C5]PKGY; reading uncertain; also: printed as KDPC5GDEVDGIDGC5PKGY) [PhiPhiLux, cell-permeable fluorogenic caspase 3/7 substrate from OncoImmunin, Inc]", "cleavage by apoptotic thymocyte extracts relative to fresh thymocyte extracts": 25}]}, {"system": "not listed separately", "assay": "Ground-state (H-type) dimer formation by absorption spectroscopy", "format": "physicochemical", "conditions": "homodoubly-labeled peptides", "source_text": "This was indicated by shift of absorption maxima to shorter wavelengths as well as a shape change of the absorption spectra as compared with the spectra for the enzyme digested doubly-labeled samples. Upon cleavage with elastase, the ground-state dimers were destroyed and the resulting spectra were the same as a solution containing equal concentrations of the respective singly labeled peptides.\nFor example, NorFes, an undecapeptide which is cleaved by the serine protease elastase, was homodoubly labeled on opposite sides of its cleavage site with six fluorophores in order to identify structural elements of dyes which influence intramolecular H-type dimer formation.", "values": [{"compound": "F1-PDEVDGIDPK[F1]GY ({F1(3)}-PDEVDGIDPK(F1(3))GY)", "dye-dye (ground-state, H-type) dimer formation / spectral change": "did not allow the formation of productive H-type dimers"}, {"compound": "F1-DEVDGIDPK[F1]GY ({F1(3)}-DEVDGIDPK(F1(3))GY)", "dye-dye (ground-state, H-type) dimer formation / spectral change": "did not allow the formation of productive H-type dimers"}, {"compound": "c1cc2ccc3cccc4ccc(c1)c2c34", "note": "[pyrene]", "dye-dye (ground-state, H-type) dimer formation / spectral change": "No spectral changes were observed"}]}, {"system": "Jurkat cells, HL-60 cells, human lymphocyte lines, A1.1 cells, murine primary thymocytes", "assay": "Cellular uptake of substrates by fluorescence microscopy, flow cytometry, HPLC", "format": "cell-based", "conditions": "viable cells", "experimental": "The compounds listed in Table 6 were synthesized and assayed for cellular uptake. Cellular internalization of the substrates was tested using Jurkat cells (a human acute T cell leukemic line), HL-60 cells (a human promyelocytic leukemic line), human lymphocyte lines, A1.1 cells (a murine T-cell line), and murine primary thymocytes. Procedures used in determining substrate uptake by viable cells are provided in Example 6 (for the HPLC procedures), in Example 2 (for the fluorescence microscopic analysis), and in Example 3 (for the flow cytometric analysis) a summary of these analyses with respect to cellular uptake of substrates is presented in this example.\nThe elastase substrate, Fm—K[F1]DAIPNluSIPK[F1]GY (SEQ ID NO:185), (where F1 was carboxytetramethylrhodamine, Fm was Fmoc, K[F1] was F1 covalently attached through the epsilon amino group of lysine (K), and Fm—K is the Fmoc group covalently attached at the alpha amino group of the amino terminal lysine residue) was used with HL-60 cells. Cells were incubated with various concentrations of elastase substrate ranging from 10 nM to 10 μM for 5 minutes to 60 minutes. Then the cells were diluted 5-fold with RPMI 1640 medium containing 5% serum or with phosphate buffered saline. The samples were centrifuged and washed once more with 1 ml of washing solution. After centrifugation and removal of the washing solution, cell pellets were loosened with about 25 ul of medium and these cells were transferred to a glass capillary. Capillary tubes were then placed on a glass microscope slide and examined under a fluorescence microscope using standard rhodamine filters.\nFor apoptosis-related protease activity determination, 10 μM concentration of the compounds listed in Example 8 (compound structures 2 through 13) were incubated with cells for 30 min. to 3 hours. The cells were then washed similarly twice. Using glass capillary tubes, the washed cells were transferred and examined under a fluorescence microscope.\nThe concentration of substrates used in flow cytometric analysis was 10 M in RPMI1640 medium containing 4 to 10% fetal calf serum. Cell densities during incubation with the chosen substrates ranged from 50,000 cells per ml to 4,000,000 per ml. Incubation times were from 30 min. to 3 hours at 37° C. and incubation volumes were 50 μL to 2 ml. After incubation with substrate for 30 to 60 min. cell suspensions were diluted 10-fold with ice cold Hank's Buffered Saline Solution (HBSS). This filtered cell suspension was then subjected to flow cytometric analysis using a 488 nm excitation source. Becton Dickenson, Inc.'s flow cytometer, FacSort, was used in the flow cytometric analysis. Typically, 10,000 to 30,000 events per sample were collected.", "values": [{"compound": "Fm-K[F1]DBGDEVDGIDGPK[F1]GY (K(F1)D[code B]GDEVDGIDGPK(F1)GY; not fully specified (N-terminus); printed as Fm-K[F1]DBGDEVDGIDGPK[F1]GY; reading uncertain) [Compound 10]", "cellular uptake (Table 6)": "efficient cellular uptake"}, {"compound": "Fm-K[F1]DBDEVDGIDPK[F1]GY (Fmoc-K(F1″)D[code B]DEVDGIDPK(F1″)GY; reading uncertain; also: printed as Fm-K[F1]DBDEVDGIDPK[F1]GY) [Compound 4]", "cellular uptake (Table 6)": "efficient cellular uptake"}, {"compound": "Fm-K[F1]DAIPNluSIPK[F1]GY [Compound 1]", "cellular uptake (Table 6)": "efficient cellular uptake"}, {"compound": "Z-K[F1]DBJGDEVDGIDGJPK[F1]GY (Cbz-K(F1″)D[code B][code J]GDEVDGIDG[code J]PK(F1″)GY; reading uncertain; also: printed as Z-K[F1]DBJGDEVDGIDGJPK[F1]GY) [Compound 12]", "cellular uptake (Table 6)": "efficient cellular uptake"}, {"compound": "K[F1]DBDEVDGIDPK[F1]GY (K(F1″)D[code B]DEVDGIDPK(F1″)GY; reading uncertain; also: printed as K[F1]DBDEVDGIDPK[F1]GY) [Compound 5]", "cellular uptake (Table 6)": "not optimum for cellular uptake"}, {"compound": "K[F1]DAIPNluSIPK[F1]GY [Compound 2]", "cellular uptake (Table 6)": "not optimum for cellular uptake"}, {"compound": "Fm-DAIPNluSIPK[F1]GY [Compound 3]", "cellular uptake (Table 6)": "does not result in significant cellular uptake"}, {"compound": "K[F1]DYBADGIDPK[F1]GY (K(F1″)DY[code B]ADGIDPK(F1″)GY; reading uncertain; also: printed as K[F1]DYBADGIDPK[F1]GY) [Compound 9]", "cellular uptake (Table 6)": "not optimum for cellular uptake"}, {"compound": "Fm-K[F1]DBDEVNGIDPK[F1]GY (Fmoc-K(F1″)D[code B]DEVNGIDPK(F1″)GY; reading uncertain; also: printed as Fm-K[F1]DBDEVNGIDPK[F1]GY) [Compound 6]", "cellular uptake (Table 6)": "efficient cellular uptake"}, {"compound": "Fm-K[F1]DBEVDGIDPK[F1]GY (Fmoc-K(F1″)D[code B]EVDGIDPK(F1″)GY; reading uncertain; also: printed as Fm-K[F1]DBEVDGIDPK[F1]GY) [Compound 8]", "cellular uptake (Table 6)": "efficient cellular uptake"}, {"compound": "K[F1]DBDEVNGIDPK[F1]GY (K(F1″)D[code B]DEVNGIDPK(F1″)GY; reading uncertain; also: printed as K[F1]DBDEVNGIDPK[F1]GY) [Compound 7]", "cellular uptake (Table 6)": "not optimum for cellular uptake"}]}]}
